Tests used:
[1] = target: Serine/threonine-protein kinase pim-1 (Homo sapiens, UniProt P11309); settings: at 10 µM
[2] = target: T1, Inhibitor of nuclear factor kappa-B kinase subunit beta (Homo sapiens) (UniProt O14920); assay: Selectivity interaction (KinomeScan (DiscoverX)) EUB0000666a IKBKB; settings: at 10 µM
T1 sequence (whole entry): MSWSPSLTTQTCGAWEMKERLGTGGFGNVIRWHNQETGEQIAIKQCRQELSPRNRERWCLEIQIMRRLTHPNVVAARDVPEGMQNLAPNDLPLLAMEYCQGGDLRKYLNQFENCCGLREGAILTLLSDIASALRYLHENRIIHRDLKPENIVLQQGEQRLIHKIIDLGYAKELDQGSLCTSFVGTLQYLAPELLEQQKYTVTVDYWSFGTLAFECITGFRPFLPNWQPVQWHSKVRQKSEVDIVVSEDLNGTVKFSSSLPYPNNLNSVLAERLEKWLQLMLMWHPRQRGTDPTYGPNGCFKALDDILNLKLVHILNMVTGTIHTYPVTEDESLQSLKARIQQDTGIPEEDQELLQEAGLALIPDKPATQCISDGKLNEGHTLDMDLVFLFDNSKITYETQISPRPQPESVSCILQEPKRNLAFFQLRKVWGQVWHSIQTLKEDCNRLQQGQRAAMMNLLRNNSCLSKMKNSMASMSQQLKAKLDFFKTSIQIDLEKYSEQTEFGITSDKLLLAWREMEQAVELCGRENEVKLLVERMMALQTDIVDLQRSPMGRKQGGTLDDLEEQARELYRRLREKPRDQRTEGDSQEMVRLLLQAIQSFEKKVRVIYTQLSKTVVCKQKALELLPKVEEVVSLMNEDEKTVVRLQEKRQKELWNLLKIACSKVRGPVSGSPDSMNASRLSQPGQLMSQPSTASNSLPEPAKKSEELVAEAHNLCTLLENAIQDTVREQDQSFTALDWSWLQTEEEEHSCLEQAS

[3] = target: Serine/threonine-protein kinase 16 (Homo sapiens, UniProt O75716); assay: Selectivity interaction (KinomeScan (DiscoverX)) EUB0001049a STK16; settings: at 1 µM
[4] = target: TRAF2 and NCK-interacting protein kinase (Homo sapiens) (UniProt Q9UKE5); assay: Selectivity interaction (KinomeScan (DiscoverX)) EUB0000695a TNIK; settings: at 100 nM
[5] = target: T2, Serine/threonine-protein kinase DCLK2 (Homo sapiens) (UniProt Q8N568); settings: at 10 µM
T2 sequence (whole entry): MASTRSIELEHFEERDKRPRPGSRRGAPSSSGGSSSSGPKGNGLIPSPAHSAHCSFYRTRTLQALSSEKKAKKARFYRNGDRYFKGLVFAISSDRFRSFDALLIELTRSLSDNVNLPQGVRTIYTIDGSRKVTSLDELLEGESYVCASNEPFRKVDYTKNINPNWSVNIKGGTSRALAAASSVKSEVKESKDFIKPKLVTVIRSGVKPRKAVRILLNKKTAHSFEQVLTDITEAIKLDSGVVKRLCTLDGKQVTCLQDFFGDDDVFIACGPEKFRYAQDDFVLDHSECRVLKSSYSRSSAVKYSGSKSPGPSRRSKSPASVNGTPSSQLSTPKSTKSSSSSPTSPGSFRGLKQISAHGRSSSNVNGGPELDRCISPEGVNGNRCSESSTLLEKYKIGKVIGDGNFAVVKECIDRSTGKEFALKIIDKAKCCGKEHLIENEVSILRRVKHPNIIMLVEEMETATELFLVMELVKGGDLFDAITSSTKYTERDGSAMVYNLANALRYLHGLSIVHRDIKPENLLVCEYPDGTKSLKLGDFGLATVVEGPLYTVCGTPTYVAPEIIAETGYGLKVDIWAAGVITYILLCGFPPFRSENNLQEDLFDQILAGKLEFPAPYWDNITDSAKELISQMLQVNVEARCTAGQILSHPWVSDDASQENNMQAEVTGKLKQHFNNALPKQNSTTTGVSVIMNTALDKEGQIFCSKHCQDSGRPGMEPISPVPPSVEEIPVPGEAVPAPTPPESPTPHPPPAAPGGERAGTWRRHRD

[6] = target: T3, Tyrosine-protein kinase JAK3 (Homo sapiens) (UniProt P52333); assay: Selectivity interaction (Antiproliferative activity against Tel-kinase transformed Ba/F3 cell line) EUB0000045b JAK3; format: cell-based; settings: BaF3
T3 sequence (whole entry): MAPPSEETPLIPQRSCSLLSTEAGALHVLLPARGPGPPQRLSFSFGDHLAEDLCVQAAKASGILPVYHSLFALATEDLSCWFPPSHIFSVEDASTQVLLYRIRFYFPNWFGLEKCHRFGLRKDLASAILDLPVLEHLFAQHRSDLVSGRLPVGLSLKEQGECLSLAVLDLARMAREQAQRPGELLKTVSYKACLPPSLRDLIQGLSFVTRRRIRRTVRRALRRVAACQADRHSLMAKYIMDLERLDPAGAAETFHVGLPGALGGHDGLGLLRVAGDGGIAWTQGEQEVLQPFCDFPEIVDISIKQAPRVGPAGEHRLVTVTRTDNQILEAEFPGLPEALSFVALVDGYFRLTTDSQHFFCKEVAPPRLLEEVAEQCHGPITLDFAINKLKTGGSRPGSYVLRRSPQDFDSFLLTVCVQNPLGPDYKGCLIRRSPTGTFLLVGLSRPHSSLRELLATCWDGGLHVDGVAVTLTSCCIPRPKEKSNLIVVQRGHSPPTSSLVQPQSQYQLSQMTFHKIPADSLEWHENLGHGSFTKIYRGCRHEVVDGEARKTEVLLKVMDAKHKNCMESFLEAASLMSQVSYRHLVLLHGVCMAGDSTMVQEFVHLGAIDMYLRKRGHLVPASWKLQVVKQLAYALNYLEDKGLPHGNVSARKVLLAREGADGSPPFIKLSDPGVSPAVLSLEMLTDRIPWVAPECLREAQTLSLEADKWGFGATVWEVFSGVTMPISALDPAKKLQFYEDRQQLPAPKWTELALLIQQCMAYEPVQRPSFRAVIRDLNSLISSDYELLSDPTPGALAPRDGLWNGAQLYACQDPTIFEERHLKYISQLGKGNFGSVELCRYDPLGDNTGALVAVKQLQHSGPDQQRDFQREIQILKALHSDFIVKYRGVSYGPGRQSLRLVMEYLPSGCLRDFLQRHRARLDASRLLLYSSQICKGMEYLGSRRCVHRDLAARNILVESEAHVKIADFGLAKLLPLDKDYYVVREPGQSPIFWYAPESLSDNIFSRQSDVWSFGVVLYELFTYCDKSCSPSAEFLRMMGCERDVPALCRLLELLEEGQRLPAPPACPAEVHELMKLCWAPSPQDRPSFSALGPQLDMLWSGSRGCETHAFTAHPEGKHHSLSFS

[7] = target: cGMP-specific 3',5'-cyclic phosphodiesterase (Homo sapiens) (UniProt O76074); assay: Selectivity interaction (Eurofins safety panel) EUB0001564a PDE5A; settings: at 10 µM
[8] = target: Vascular endothelial growth factor receptor 1 (Homo sapiens) (UniProt P17948); assay: Selectivity interaction (KinomeScan (DiscoverX)) EUB0001619a FLT1; settings: at 1 µM
Sequence of Vascular endothelial growth factor receptor 1 (Homo sapiens) (P17948 whole entry): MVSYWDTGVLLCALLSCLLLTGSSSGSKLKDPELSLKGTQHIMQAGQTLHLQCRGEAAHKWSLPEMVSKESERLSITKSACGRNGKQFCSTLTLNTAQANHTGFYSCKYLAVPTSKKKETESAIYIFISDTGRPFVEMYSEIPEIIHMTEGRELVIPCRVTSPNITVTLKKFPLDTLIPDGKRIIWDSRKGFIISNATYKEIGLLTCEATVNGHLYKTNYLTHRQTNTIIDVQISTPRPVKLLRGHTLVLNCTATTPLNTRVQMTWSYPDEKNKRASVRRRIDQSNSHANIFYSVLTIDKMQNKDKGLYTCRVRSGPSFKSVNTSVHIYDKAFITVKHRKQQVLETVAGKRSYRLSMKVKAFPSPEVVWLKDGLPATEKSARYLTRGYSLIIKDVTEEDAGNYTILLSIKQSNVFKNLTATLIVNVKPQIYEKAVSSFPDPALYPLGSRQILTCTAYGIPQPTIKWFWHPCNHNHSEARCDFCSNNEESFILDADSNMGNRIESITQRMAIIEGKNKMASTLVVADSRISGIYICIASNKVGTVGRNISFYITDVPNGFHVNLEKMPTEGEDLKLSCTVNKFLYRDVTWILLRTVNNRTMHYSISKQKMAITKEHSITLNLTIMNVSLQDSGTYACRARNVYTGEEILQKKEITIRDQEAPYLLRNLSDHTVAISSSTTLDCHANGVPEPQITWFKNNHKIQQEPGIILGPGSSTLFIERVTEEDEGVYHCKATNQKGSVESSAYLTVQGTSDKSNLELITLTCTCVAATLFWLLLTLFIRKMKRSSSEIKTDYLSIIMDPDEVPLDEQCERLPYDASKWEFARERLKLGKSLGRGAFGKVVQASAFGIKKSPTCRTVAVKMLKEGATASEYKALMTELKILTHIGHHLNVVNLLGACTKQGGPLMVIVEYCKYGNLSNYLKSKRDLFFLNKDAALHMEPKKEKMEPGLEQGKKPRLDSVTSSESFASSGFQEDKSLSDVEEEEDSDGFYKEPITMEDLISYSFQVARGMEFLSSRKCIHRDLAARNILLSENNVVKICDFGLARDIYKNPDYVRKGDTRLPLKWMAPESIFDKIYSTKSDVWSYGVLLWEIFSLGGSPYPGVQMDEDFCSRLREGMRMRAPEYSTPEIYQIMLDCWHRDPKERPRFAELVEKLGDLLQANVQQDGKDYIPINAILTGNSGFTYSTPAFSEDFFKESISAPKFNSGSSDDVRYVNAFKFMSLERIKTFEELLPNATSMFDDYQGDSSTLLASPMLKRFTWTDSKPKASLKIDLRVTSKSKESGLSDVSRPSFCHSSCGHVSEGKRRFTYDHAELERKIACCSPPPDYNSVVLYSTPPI

Sequence of TRAF2 and NCK-interacting protein kinase (Homo sapiens) (Q9UKE5 whole entry, looked up): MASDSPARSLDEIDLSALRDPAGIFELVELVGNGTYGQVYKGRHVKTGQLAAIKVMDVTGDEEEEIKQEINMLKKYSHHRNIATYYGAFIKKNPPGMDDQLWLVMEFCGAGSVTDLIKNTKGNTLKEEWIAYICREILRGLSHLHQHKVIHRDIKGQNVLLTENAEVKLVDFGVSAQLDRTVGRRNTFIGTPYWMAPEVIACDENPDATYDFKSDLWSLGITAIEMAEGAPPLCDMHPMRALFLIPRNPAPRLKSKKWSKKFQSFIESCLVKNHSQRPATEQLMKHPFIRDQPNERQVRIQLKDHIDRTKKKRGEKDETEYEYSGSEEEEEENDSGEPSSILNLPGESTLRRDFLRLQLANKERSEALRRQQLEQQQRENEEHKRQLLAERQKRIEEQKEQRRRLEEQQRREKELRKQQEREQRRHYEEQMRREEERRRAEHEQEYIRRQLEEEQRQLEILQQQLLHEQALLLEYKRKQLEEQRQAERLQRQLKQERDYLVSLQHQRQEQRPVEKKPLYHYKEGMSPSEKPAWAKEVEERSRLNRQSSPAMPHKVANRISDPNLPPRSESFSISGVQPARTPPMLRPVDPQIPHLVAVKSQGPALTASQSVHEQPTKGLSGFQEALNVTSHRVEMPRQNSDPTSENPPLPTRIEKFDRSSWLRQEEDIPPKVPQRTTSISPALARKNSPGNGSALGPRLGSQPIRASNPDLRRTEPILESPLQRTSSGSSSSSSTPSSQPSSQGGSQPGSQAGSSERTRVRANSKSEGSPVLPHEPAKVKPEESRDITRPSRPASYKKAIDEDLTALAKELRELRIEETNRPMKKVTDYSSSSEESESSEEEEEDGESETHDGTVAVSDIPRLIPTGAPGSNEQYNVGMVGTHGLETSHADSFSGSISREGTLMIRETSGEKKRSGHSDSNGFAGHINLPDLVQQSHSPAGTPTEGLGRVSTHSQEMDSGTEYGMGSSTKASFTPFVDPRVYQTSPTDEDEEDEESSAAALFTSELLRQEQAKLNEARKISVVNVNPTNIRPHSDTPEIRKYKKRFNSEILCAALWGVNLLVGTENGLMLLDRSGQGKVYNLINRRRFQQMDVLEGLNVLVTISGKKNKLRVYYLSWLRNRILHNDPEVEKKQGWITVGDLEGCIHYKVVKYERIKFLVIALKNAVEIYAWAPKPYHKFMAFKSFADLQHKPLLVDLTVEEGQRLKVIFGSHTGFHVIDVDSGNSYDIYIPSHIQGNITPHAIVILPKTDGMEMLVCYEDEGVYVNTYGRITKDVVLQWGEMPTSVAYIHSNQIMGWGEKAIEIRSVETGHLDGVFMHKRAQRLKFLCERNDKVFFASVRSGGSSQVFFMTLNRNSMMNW
Sequence of Serine/threonine-protein kinase pim-1 (P11309 whole entry, looked up): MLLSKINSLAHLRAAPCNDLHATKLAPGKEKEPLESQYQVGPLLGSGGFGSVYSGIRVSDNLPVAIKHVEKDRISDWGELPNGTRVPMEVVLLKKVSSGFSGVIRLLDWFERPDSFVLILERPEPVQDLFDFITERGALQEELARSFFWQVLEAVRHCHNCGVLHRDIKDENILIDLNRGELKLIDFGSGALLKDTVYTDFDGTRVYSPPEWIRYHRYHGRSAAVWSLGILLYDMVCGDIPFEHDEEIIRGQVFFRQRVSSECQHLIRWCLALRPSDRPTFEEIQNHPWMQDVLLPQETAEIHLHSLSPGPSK
Sequence of Serine/threonine-protein kinase 16 (O75716 whole entry): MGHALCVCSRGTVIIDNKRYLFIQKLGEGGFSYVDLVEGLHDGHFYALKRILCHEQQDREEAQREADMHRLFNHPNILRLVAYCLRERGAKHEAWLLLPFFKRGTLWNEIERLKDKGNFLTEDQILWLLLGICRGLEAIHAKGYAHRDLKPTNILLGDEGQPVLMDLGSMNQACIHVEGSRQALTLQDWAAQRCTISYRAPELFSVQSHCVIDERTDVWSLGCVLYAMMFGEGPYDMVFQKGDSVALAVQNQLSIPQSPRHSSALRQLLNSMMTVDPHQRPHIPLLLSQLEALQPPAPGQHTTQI

SMILES: CCN(CC)CCCCNc1ncc2cc(-c3cc(OC)cc(OC)c3)c(NC(=O)NC(C)(C)C)nc2n1
- % of control [1]: 100%

SMILES: O=C(NOC[C@H](O)CO)c1ccc(F)c(F)c1Nc1ccc(I)cc1F
- % of control [2]: 79%

SMILES: COc1cc(Nc2nc(C)cc(-c3cnn4nc(OC)ccc34)n2)cc(C(F)(F)F)c1
- % of control [3]: 81%

SMILES: Cc1cc(F)c(C(=O)Nc2cccc(-c3nncn3C(C)C)n2)cc1-n1cnc(C2CC2)c1
- % of control [4]: 78%

SMILES: COCC(=O)NC/C=C/c1ccc2ncnc(Nc3ccc(Oc4ccc(C)nc4)c(C)c3)c2c1 [CP-724714]
- % of control [5]: 100%

SMILES: C=CC(=O)Nc1cc(-n2c(=O)ccc3cnc4ccc(-c5ccc(NS(C)(=O)=O)cc5)cc4c32)ccc1C
- GIC50 [6]: 7.98 µM

SMILES: CC[C@@H](Nc1c(C#N)c(-c2ccc(-c3cccc(C)c3F)cc2)nc2cnccc12)C(=O)O [BAY-091]
- % of inhibition [7]: 62%

SMILES: N#Cc1cccc(-c2c[nH]c3ncnc(N4CCOCC4)c23)c1
- % of control [8]: 73%

Reference: ChEMBL document CHEMBL5465560, “Selectivity Literature for EUbOPEN Chemogenomic Library” (2024)
